In article PMC9098913, “In vitro reconstitution of Escherichia coli divisome activation” (Nature Communications, 2022):

What was measured:
FtsZ [1] = conditions: […] Tris-NTA; p-value […] 10^−4 (vs WT-His6); 7.78 × 10^−5 (vs R286W); three repeats
Protocol: (§1) Co-treadmilling of FtsA with FtsZ relies on the dynamic exchange of FtsA on the membrane. […] To investigate the respective contributions of membrane binding kinetics and FtsA self-interaction on the colocalization dynamics with FtsZ, we wanted to create variants of the two FtsA proteins that are permanently attached to the membrane. […] Accordingly, in these experiments the proteins only differ in their tendency to form oligomers.
(§2) To study colocalization of His-tagged variants of FtsA, 0.5–1 µM of Cy5 labelled His-tagged FtsAs were added to the chamber, incubated for 20 min and washed 6x with reaction buffer. […] To control the density of membrane-bound FtsA, SUVs without and with Tris-NTA lipids were mixed to obtain the respective Tris-NTA concentrations. To perform FRET/FRAP experiments, equimolar concentrations of Cy3 and Cy5 labelled His-tagged FtsAs (total 0.5–1 µM) or His-SUMO-Cys were added to a chamber and treated as above. […] FRAP experiments were performed as described before.
Treadmilling dynamics, were quantified using an automated image analysis protocol previously developed by our group. To visualize colocalization of the co-treadmilling FtsZ & FtsA filaments, we used dual-colour videos obtained at an acquisition rate of one frame per 2 s. The two channels were aligned using FIJI’s 3TP align plugin. Both channels were then subjected to the image subtraction protocol and colocalization was measured as described above.

[2] = Membrane off-binding rate (koff) of FtsA from FRAP; set-up: Off binding rate koff: unit not given here; conditions: Fig. S4i
Description: We could also use the data from these bleaching experiments to quantify the membrane-binding kinetics and diffusion of membrane-bound proteins by analysing the change of the fluorescence profile during recovery.
Equimolar concentrations of Cy3- and Cy5-labelled FtsA, supplemented with 20% unlabelled FtsA were used to study FRET and FRAP. Five pre-bleach frames were acquired, followed by acceptor photobleaching of a rectangular ROI with 40% 641 nm laser power and a dwell size of 1 µs/pixel, 75% overlapping lines. The recovery of the signal or the increase in donor intensity were measured with either two frames or one frame per second.
Bleaching the acceptor dye leads to an increase in the donor intensity, which can be used to quantify the Foerster Resonance energy transfer (FRET)[48]. FRET efficiency was quantified with E%=Ipost/Ipost+Ipre⋅100 , where Ipost is the intensity of the […] and Ipre is the […]. […] To extract the contribution of both processes, we adjusted a routine recently published by Gerganova et al.[33]. In short, the code provides the contribution of both modes of recovery by analysing the shape of the fluorescence recovery profile. […] Contribution of diffusion leads to a change of the slope of the outer borders of the bleached region (S4h right). Thus, by measuring the change of the slope of the border recovery, diffusion and simple on/off binding can be distinguished. We developed “FRAPdiff”, a graphical user interface, which uses the original fit routine by David Rutkowski. It can be used directly on.tiff movies with annotated bleach regions as ImageJ ROIs. In addition, we added optional bleach correction, user selectable projection axis (x or y), and optional mirroring of the recovery profiles, if bleaching was not symmetric. The original fit routine for estimating the recovery and diffusion dynamics can be found at https://github.com/davidmrutkowski/1DReflectingDiffusion. FRAPdiff is available at 10.5281/zenodo.6400639[49] under the GPLv3 open-source license.

FtsZ [3] = conditions: […] Tris-NTA; p-value 3.86 × 10^−4; three repeats
Protocol: as §1, §2
Time-lapse videos were first intensity-corrected and contrast-enhanced to avoid bleaching effects and simplify subsequent analysis. To remove contributions of X–Y drift, the videos were processed with the Linear Stack Alignment with SIFT plugin. Proper alignment was checked with the 3TP align plugin (J. A. Parker; Beth Israel Deaconess Medical Center, Boston). Subsequently, regions of interest (ROIs) in the center of the stacks were chosen for colocalization analysis. The Pearson’s correlation coefficient (PCC) was quantified with the Image CorrelationJ 1o plugin. To extract information about the relative ratio of FtsZ/FtsA molecules (slope of linear regression), we also used the Image CorrelationJ 1o plugin. As an output, the plugin provides a scatterplot of FtsZ vs FtsA intensities, to which we fitted a linear slope y=k⋅x+d , where k is the slope and d the offset. The slope was used as an estimate for the ratio of FtsA molecules below FtsZ filaments.

For “FtsA-His6: FtsA WT (1-405) with amphipathic helix replaced by C-terminal His-tag”, the “PCCdiff His-tagged FtsA/FtsZ” value (FtsZ [1]) was 0.07 ± 0.04, the “Off binding rate koff” value ([2]; 0.10 % Tris-NTA lipids, + FtsZ, summary value) was 0.0359 and the “Off binding rate koff” value ([2]; 0.10 % Tris-NTA lipids, replicate 1) was 0.020. For the same substance, the “Off binding rate koff” value ([2]; 0.10 % Tris-NTA lipids, replicate 2) was 0.006, the “Off binding rate koff” value ([2]; 0.10 % Tris-NTA lipids, without FtsZ, summary value) was 0.0131 and the “Off binding rate koff” value ([2]; 0.40 % Tris-NTA lipids, + FtsZ, summary value) was 0.0068. For the same substance, the “Off binding rate koff” value ([2]; 0.40 % Tris-NTA lipids, without FtsZ, summary value) was 0.0123, the “Off binding rate koff” value ([2]; 0.60 % Tris-NTA lipids, + FtsZ, summary value) was 0.0048 and the “Off binding rate koff” value ([2]; 0.60 % Tris-NTA lipids, without FtsZ, summary value) was 0.0097. The “Off binding rate koff” value ([2]; […] Tris-NTA lipids, + FtsZ, summary value) was 0.0182, the “Off binding rate koff” value ([2]; […] Tris-NTA lipids, replicate 1) was 0.0017 and the “Off binding rate koff” value ([2]; […] Tris-NTA lipids, replicate 2) was 0.018. The “Off binding rate koff” value ([2]; […] Tris-NTA lipids, without FtsZ, summary value) was 0.0098 and the “PCC His-tagged FtsA/FtsZ” value (FtsZ [3]) was 0.13 ± 0.06.
